Drawing on patent publication US20230365556A1, “N-ACYL AMINO ACID COMPOUNDS AND METHODS OF USE” (Pliant Therapeutics, Inc., priority 2016, published 2023), this text covers IC50 for 25 molecules.

Structures can show the parent of a compound that is named as a salt. Some results are limits rather than exact numbers.

The IC50 is the midpoint of a concentration-inhibition curve.

For this assay, the target named is αvβ1 integrin (αvβ1 expressing CHO cells) (Homo sapiens (Human), UniProt P05556+P06756). Kind of assay: Cell adhesion assay: inhibition of αvβ1 expressing CHO cells attaching to TGFβ1LAP. The class given is cell-based. The settings on record: 1 h at 37° C., crystal violet absorbance 595 nm, read-out: αvβ1 Inhibition IC50 (nM)-range. The method, then: Example B1—Cell Adhesion Assay
Chain of αvβ1 integrin (αvβ1 expressing CHO cells) (P06756 31-889): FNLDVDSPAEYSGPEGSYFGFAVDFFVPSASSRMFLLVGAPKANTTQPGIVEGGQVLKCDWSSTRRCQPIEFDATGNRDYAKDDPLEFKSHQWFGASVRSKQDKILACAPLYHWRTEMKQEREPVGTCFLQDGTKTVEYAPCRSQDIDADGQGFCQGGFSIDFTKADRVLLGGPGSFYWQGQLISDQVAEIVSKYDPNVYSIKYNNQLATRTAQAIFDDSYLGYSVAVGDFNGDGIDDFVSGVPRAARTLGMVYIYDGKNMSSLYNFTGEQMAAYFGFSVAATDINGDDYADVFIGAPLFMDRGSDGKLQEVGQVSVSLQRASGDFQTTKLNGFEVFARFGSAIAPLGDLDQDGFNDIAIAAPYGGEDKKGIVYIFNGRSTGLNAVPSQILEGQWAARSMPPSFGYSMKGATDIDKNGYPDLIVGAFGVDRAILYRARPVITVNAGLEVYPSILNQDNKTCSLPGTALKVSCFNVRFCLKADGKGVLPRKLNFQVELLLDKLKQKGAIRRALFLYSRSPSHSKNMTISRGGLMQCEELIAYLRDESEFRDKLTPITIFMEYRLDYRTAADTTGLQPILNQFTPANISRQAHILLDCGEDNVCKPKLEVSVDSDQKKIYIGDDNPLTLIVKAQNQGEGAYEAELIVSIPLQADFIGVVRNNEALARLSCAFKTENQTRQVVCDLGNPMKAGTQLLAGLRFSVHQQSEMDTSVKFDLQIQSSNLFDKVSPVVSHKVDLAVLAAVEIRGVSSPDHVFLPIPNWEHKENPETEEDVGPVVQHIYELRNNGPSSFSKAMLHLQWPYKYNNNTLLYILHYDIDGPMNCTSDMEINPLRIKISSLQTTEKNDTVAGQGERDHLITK
Chain of αvβ1 integrin (αvβ1 expressing CHO cells) (P06756 891-1048 partner): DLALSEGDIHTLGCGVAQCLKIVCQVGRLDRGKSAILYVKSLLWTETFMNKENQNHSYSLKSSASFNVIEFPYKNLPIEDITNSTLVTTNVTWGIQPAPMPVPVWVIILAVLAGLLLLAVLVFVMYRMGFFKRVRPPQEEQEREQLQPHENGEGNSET
Chain of αvβ1 integrin (αvβ1 expressing CHO cells) (P05556 21-798): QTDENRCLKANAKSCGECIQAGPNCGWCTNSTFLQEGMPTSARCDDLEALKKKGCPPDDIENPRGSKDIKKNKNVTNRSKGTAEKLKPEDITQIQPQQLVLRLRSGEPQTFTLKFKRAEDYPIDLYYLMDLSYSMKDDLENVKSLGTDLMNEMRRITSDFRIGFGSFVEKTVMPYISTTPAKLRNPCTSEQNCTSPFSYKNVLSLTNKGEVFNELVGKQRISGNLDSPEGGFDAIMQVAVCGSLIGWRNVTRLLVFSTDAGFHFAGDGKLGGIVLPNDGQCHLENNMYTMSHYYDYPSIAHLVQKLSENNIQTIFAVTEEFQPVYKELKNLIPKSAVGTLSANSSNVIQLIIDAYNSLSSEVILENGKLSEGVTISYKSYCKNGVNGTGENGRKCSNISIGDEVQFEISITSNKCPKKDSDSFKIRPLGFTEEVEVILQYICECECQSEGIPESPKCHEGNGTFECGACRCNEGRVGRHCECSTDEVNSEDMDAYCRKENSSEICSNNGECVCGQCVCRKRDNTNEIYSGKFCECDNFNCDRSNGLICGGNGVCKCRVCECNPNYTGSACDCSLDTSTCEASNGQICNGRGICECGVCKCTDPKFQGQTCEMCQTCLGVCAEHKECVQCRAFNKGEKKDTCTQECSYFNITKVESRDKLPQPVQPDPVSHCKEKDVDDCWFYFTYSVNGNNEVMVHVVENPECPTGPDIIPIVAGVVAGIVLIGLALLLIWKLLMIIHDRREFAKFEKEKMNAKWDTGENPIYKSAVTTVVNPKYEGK
In order to determine the potency, the compounds were assessed for their ability to inhibit αvβ1 expressing CHO cells attach to TGFβ1LAP. Microplates were coated overnight with 2 ug/ml TGFβ1LAP at 4° C., and blocked with 2% BSA/PBS for 30 min before the assay. Cells were detached and washed in PBS. After that the cells were resuspended in DMEM at 1.0×10^6 cells/ml, fifty microliter of cell suspension and fifty microliter of compound solution were added into the plate. The plates were incubated for one hour at 37° C. in humidified 5% carbon dioxide. Non-adherent cells were removed by centrifugation top side down at 58 g for 5 min. The attached cells were fixed and stained with 0.5% crystal violet (in 20% methanol and 1% formaldehyde) and the wells washed with PBS. Crystal violet was dissolved in 2% Triton-X in PBS. The relative number of cells in each well was evaluated by the absorbance at 595 nm in a microplate reader (Tecan). IC50 values were determined by non-linear regression with four parameters (Graphpad Prism 7.01, Y=Bottom+(Top−Bottom)/(1+10^((Log IC50−X)*HillSlope)).
The compounds tested were compound samples prepared according to procedures described in the Synthetic Examples section, with the stereochemical purity as indicated in the Examples indicated for Example or Compound No. 1-62. The compounds tested were predominantly S-configuration at the alpha carbon of the amino acid scaffold, except for compounds 123, 124, and 125 which were predominantly R-configuration at the alpha carbon of the amino acid scaffold. “Example or Compound No.” in Table B-1 refers to the compound illustrated in the examples for Example or Compound Nos. 1-62 (the compounds of Examples 1-62 are labeled as Compounds 1-62 in Table 1). “Example or Compound No.” in Table B-1 refers to the compound number as indicated in Table 1 or Table 2 for Example or Compound Nos. 63-126.
In the case of `CN1CC(NCCCCOc2ccc(C[C@H](NC(=O)c3c(Cl)cccc3Cl)C(=O)O)cc2)=NCC1=O` [Example 58, (S)-2-(2,6-dichlorobenzamido)-3-(4-(4-((4-methyl-5-oxo-3,4,5,6-tetrahydropyrazin-2-yl)amino)butoxy)phenyl)propanoic acid], the IC50 is above 1000 nM.

For `Cn1ncc2cc(C(=O)NC(CCCCCCCc3ccc4c(n3)NCCC4)C(=O)O)ccc21` (stereo not shown) [Compound 82, 2-(1-methyl-1H-indazole-5-carboxamido)-9-(5,6,7,8-tetrahydro-1,8-naphthyridin-2-yl)nonanoic acid], the IC50 is 50 to 250 nM.

For the molecule `Cn1cc2cc(C(=O)NC(CCCCCCCc3ccc4c(n3)NCCC4)C(=O)O)ccc2n1` (stereo not shown) [Compound 86, 2-(2-methyl-2H-indazole-5-carboxamido)-9-(5,6,7,8-tetrahydro-1,8-naphthyridin-2-yl)nonanoic acid], the IC50 was 50 to 250 nM. Next, `Cn1cc2cc(C(=O)N[C@@H](Cc3ccc(OCCCc4ccc5c(n4)NCCC5)cc3)C(=O)O)ccc2n1` [Example 45, (2S)-2-[(2-methylindazole-5-carbonyl)amino]-3-[4-[3-(5,6,7,8-tetrahydro-1,8-naphthyridin-2-yl)propoxy]phenyl]propanoic acid]: below 50 nM.

As to `O=C(N[C@@H](Cc1ccc(OCCCc2ccc3c(n2)NCCC3)cc1)C(=O)O)c1c(Cl)cccc1Cl` [Example 16, (S)-2-(2,6-dichlorobenzamido)-3-(4-(3-(5,6,7,8-tetrahydro-1,8-naphthyridin-2-yl)propoxy)phenyl)propanoic acid], the concentration for half-maximal inhibition (IC50) is below 50 nM.

As for `CN1CCN=C(NCCCCCCCC[C@H](NC(=O)c2c(Cl)cccc2Cl)C(=O)O)C1=O` [Example 53, (S)-2-(2,6-dichlorobenzamido)-10-((4-methyl-3-oxo-3,4,5,6-tetrahydropyrazin-2-yl)amino)decanoic acid], the IC50 is above 1000 nM.

Turning to `O=C(N[C@@H](Cc1ccc(N2CC(c3ccc4c(n3)NCCC4)C2)cc1)C(=O)O)c1c(Cl)cccc1Cl` [Example 22, (S)-2-(2,6-dichlorobenzamido)-3-(4-(3-(5,6,7,8-tetrahydro-1,8-naphthyridin-2-yl)azetidin-1-yl)phenyl)propanoic acid], the IC50 is below 50 nM. In the case of `CC(=O)N1CCN=C(NCCCCOc2ccc(C[C@H](NC(=O)c3c(Cl)cccc3Cl)C(=O)O)cc2)C1` [Example 55, (S)-3-(4-(4-((4-acetyl-3,4,5,6-tetrahydropyrazin-2-yl)amino)butoxy)phenyl)-2-(2,6-dichlorobenzamido)propanoic acid] it was 50 to 250 nM; in that of `O=C(NC(Cc1ccc(OCCCc2ccc3c(n2)NCCC3)cc1)C(=O)O)c1c(Cl)cc(-c2cnc[nH]2)cc1Cl` (stereo not shown) [Compound 99], below 50 nM; in that of `O=C(N[C@@H](Cc1ccc(OCCCCNC2=NCCCS2)cc1)C(=O)O)c1c(Cl)cccc1Cl` [Example 60, (S)-2-(2,6-dichlorobenzamido)-3-(4-(4-((5,6-dihydro-4H-1,3-thiazin-2-yl)amino)butoxy)phenyl)propanoic acid], below 50 nM.

Consider `N#Cc1ccc(Cl)c(C(=O)N[C@@H](CCCCCCCc2ccc3c(n2)NCCC3)C(=O)O)c1` [Compound 100], for which the IC50 was below 50 nM.

Consider `O=C(N[C@@H](Cc1ccc(OCCCc2ccc3c(n2)NCCC3)cc1)C(=O)O)c1ccncc1` [Example 13, (S)-2-(isonicotinamido)-3-(4-(3-(5,6,7,8-tetrahydro-1,8-naphthyridin-2-yl)propoxy)phenyl)propanoic acid], for which the IC50 was below 50 nM. In the case of `O=C(NC(Cc1ccc(COC2CC(Nc3ccccn3)C2)cc1)C(=O)O)c1c(Cl)cccc1Cl` [Example 32, (S)-2-(2,6-dichlorobenzamido)-3-(4-(((1s,3R)-3-(pyridin-2-ylamino)cyclobutoxy)methyl)phenyl)propanoic acid trifluoroacetate] it was 50 to 250 nM; in that of `O=C(N[C@@H](Cc1ccc(OCCCc2ccc3c(n2)NCCC3)cc1)C(=O)O)c1cc(F)ccc1Cl` [Example 36, (2S)-2-[(2-chloro-5-fluoro-benzoyl)amino]-3-[4-[3-(5,6,7,8-tetrahydro-1,8-naphthyridin-2-yl)propoxy]phenyl]propanoic acid], below 50 nM.

Consider `O=C(N[C@@H](CCCCCCCc1ccc2c(n1)NCCC2)C(=O)O)c1ccc(-c2ccncc2)cc1` [Compound 112], for which the IC50 was 50 to 250 nM.

Consider `N#Cc1cc(Cl)c(C(=O)N[C@@H](Cc2ccc(OCCCc3ccc4c(n3)NCCC4)cc2)C(=O)O)c(Cl)c1` [Example 5, (S)-2-(2,6-dichloro-4-cyanobenzamido)-3-(4-(3-(5,6,7,8-tetrahydro-1,8-naphthyridin-2-yl)propoxy)phenyl)propanoic acid], for which the IC50 was below 50 nM. Next, `O=C(N[C@@H](Cc1ccc(O[C@H]2CC[C@H](Nc3ccccn3)CC2)cc1)C(=O)O)c1c(Cl)cccc1Cl` [Example 39, (2S)-2-[(2,6-dichlorobenzoyl)amino]-3-[4-[4-trans-(2-pyridylamino)cyclohexoxy]phenyl]propanoic acid]: above 1000 nM; `CC(C)(CCNc1ccccn1)Nc1ccc(C[C@H](NC(=O)c2c(Cl)cccc2Cl)C(=O)O)cc1` [Example 26, (S)-2-(2,6-dichlorobenzamido)-3-(4-((2-methyl-4-(pyridin-2-ylamino)butan-2-yl)amino)phenyl)propanoic acid]: above 1000 nM. In the case of `O=C(N[C@@H](CCCCCCCCNC1=NCCCS1)C(=O)O)c1c(Cl)cccc1Cl` [Example 54, (S)-2-(2,6-dichlorobenzamido)-10-((5,6-dihydro-4H-1,3-thiazin-2-yl)amino)decanoic acid] it was 250 to 1000 nM. Next, `O=C(N[C@@H](Cc1ccc(OCCCc2ccc3c(n2)NCCC3)cc1)C(=O)O)c1c(F)cccc1F` [Example 7, (S)-2-(2,6-difluorobenzamido)-3-(4-(3-(5,6,7,8-tetrahydro-1,8-naphthyridin-2-yl)propoxy)phenyl)propanoic acid]: below 50 nM; `Nc1cc(C(=O)N[C@@H](Cc2ccc(OCCCc3ccc4c(n3)NCCC4)cc2)C(=O)O)ccc1O` [Example 11, (S)-2-(3-amino-4-hydroxybenzamido)-3-(4-(3-(5,6,7,8-tetrahydro-1,8-naphthyridin-2-yl)propoxy)phenyl)propanoic acid]: 50 to 250 nM.

On to `O=C(N[C@@H](CCCCCCCc1ccc2c(n1)NCCC2)C(=O)O)c1cccc2[nH]ncc12` [Compound 116], for which the IC50 was below 50 nM. In the case of `O=C(N[C@@H](Cc1ccc(OCCCCNC2=NCCO2)cc1)C(=O)O)c1c(Cl)cccc1Cl` [Example 61, (S)-2-(2,6-dichlorobenzamido)-3-(4-(4-((4,5-dihydrooxazol-2-yl)amino)butoxy)phenyl)propanoic acid] it was 50 to 250 nM; in that of `O=C(N[C@@H](Cc1ccc(N2CC(Cc3ccc4c(n3)NCCC4)C2)cc1)C(=O)O)c1c(Cl)cccc1Cl` [Example 21, (S)-2-(2,6-dichlorobenzamido)-3-(4-(3-((5,6,7,8-tetrahydro-1,8-naphthyridin-2-yl)methyl)azetidin-1-yl)phenyl)propanoic acid], above 1000 nM. For the molecule `Cn1ncc2ccc(C(=O)N[C@@H](CCCCCCCc3ccc4c(n3)NCCC4)C(=O)O)cc21` [Compound 102], the IC50 was 50 to 250 nM.
